pEC50, pIC50: −log10 of the molar value.
What was measured:
[1] = target: T1, human CK1δ (Cos 7 cells cotransfected with mouse Per3-GFP) (Homo sapiens, UniProt P48730); assay: CK1 WCA HCS nuclear translocation assay (CK1δ); assay type: cell-based; settings: inhibition of mPer3-GFP translocation to the nucleus, overnight exposure, read-out: CK1 δ WCA EC50
T1 construct: His tag of the vector pcDNA4/hisA (only the vector name is printed); expressed in transfected cells; host or cells: Cos 7 cells
Method: (§1) CK1 WCA HCS Nuclear Translocation Assay.
(§2) Cos 7 cells were maintained at 37° C. in 5% CO2 in Dulbecco's Modified Eagle Medium (Gibco 11995) supplemented with 10% fetal bovine serum. Log-phase cells were dislodged with 5 min treatment of TrypLE Express (Gibco 12605) and viable cell count was determined with Cedex cell counter. Cells were diluted in DMEM medium to a density of 1.5e5 viable cells/mL in ⅔ of the final volume of final transfected cell mix. Cells were cotransfected with two plasmid DNAs, mouse Per3-GFP (green fluorescent protein) in pd2EGFP-N1 vector and human CKI in pcDNA4/hisA vector (for CK1Epsilon at a ratio of 1:5 respectively; for CK1δ at a ratio of 1:11 respectively), using Lipofectamine 2000 reagent (Invitrogen) according to the manufacturer's recommendations. The transfection mix contained approximately 0.83 μg/mL of DNA and 6 μL/mL of Lipofectamine 2000, in a total of ⅓ of the final transfection volume in Opti-MEM I medium (Invitrogen). After 20 min at rt, the cell mix was combined with the DNA transfection mix, per manufacturer instructions. 50 μL of the transfected cell suspension was dispensed per well by multidrop dispenser into Greiner 384-well Cellcoat (PDL) plates (Greiner #781946).
(§3) Compounds were solubilized in 100% DMSO, diluted with Opti-MEM I to a 4× concentration before addition to plated cells. After overnight exposure at 37° C. in a CO2 incubator, cells were fixed by the addition of 12% paraformaldehyde (Electron Microscopy Sciences, Hatfield, Pa.) in phosphate-buffered saline (PBS) with 20% sucrose to a final concentration of 4%, and then the cells were incubated for 30 min at rt. Fixative was removed, and cells were washed with PBS and then stained with 0.4 μg/ml Hoechst dye (Invitrogen) in blocking buffer containing 4% goat serum (Vector Labs s-1000) and 0.1% TritonX (Sigma T8787) for 1 h. Cells were washed again with PBS and stored at 4° C. in PBS or scanned immediately with the Cellomics ArrayScan VTI. CKIδ dependent nuclear localization of the GFP-tagged mPer3 protein was quantitated using the Cellomics ArrayScan VTI system utilizing the Cytoplasm to Nucleus translocation bioapplication to calculate the Nuclear-Cytoplasmic Intensity difference. Inhibitors of CK1 δ/ε were tested across a dose response curve to evaluate their ability to inhibit mPer3-GFP translocation to the nucleus. Cells with a total intensity of mPER3:GFP expression equal to or greater than 20,000 are included in analysis.

[2] = target: T2, human CK1Epsilon (Cos 7 cells cotransfected with mouse Per3-GFP) (Homo sapiens, UniProt P49674); assay: CK1 WCA HCS nuclear translocation assay (CK1ε); assay type: cell-based; settings: inhibition of mPer3-GFP translocation to the nucleus, overnight exposure, read-out: CK1 ε WCA EC50
T2 construct: His tag of the vector pcDNA4/hisA (only the vector name is printed); expressed in transfected cells; host or cells: Cos 7 cells
T2 sequence (P49674 whole entry): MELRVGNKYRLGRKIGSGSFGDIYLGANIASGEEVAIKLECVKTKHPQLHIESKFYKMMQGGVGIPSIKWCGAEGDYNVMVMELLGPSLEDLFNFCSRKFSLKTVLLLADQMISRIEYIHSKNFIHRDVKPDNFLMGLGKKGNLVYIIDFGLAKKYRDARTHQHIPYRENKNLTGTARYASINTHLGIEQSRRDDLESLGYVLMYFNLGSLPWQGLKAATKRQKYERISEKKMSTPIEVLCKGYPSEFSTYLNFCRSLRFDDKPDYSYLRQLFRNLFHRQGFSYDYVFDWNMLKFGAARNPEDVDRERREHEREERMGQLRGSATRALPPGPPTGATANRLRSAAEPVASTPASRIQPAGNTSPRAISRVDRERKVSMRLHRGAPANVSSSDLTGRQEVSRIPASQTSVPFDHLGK
Method: as §1, §2, §3

CKIδ wild type = CKIδ wild type (Homo sapiens, UniProt P48730); assay: CK1δ kinase assay (Kinase-Glo); assay type: biochemical; settings: 10 μM ATP, 2 nM CKIδ, 85 min at 25° C.; read-out: CK1 δ IC50
Sequence of CKIδ wild type (P48730 whole entry): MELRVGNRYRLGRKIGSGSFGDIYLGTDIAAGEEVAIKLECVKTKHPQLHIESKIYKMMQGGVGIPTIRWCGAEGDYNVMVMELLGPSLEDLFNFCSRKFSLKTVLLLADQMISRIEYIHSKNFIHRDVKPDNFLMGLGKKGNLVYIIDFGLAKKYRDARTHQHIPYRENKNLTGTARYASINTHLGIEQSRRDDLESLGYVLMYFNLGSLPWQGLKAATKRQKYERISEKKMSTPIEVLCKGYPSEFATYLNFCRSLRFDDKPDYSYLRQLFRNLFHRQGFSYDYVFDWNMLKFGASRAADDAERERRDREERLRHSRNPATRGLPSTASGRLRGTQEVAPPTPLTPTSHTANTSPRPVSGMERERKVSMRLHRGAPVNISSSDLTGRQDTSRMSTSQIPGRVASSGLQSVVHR
Method: (§4) The CK1δ kinase assay was performed in a 40 μl final volume in buffer containing 50 mM Tris, pH 7.5, 10 mM MgCl2, 1 mM dithiothreitol, 100 μg/mL BSA with 10 μM ATP, 2 nM CKIδ wild type, and 42 μM peptide substrate PLSRTLp[…] (Flotow et al., 1990) in the presence of 1 μl of CKIδ inhibitor or 4% DMSO. The reaction was incubated for 85 min at 25° C.; detection was carried out as described for the Kinase-Glo Assay (Promega). Luminescent output was measured on the Perkin Elmer Envision plate reader (PerkinElmer, Waltham, Mass.).

CKI ε wild type = CKI ε wild type (Homo sapiens, UniProt P49674); assay: CK1ε kinase assay (Kinase-Glo); assay type: biochemical; settings: 10 μM ATP, 2.5 nM CKI ε, 70 min at 25° C.; read-out: CK1 ε:IC50
Sequence of CKI ε wild type (P49674 whole entry): as the sequence (P49674 whole entry) above
Method: as §4, with “The CK1ε” for “The CK1δ”, “a 40-μl” for “a 40 μl”, “ATP, 2.5” for “ATP, 2”, “nM CKI ε” for “nM CKIδ”, “of CKI ε” for “of CKIδ”, “for 70” for “for 85”

T1 sequence (P48730 whole entry): as the sequence (P48730 whole entry) above

| Compound | pEC50 [1] | pEC50 [2] | pIC50 (CKIδ wild type) | pIC50 (CKI ε wild type) |
| --- | --- | --- | --- | --- |
| CC1CNCc2nccc(-c3cn(C)nc3-c3ccc(F)cc3)c2O1 (racemic) [Example 8, 9-[3-(4-fluorophenyl)-1-methyl-1H-pyrazol-4-yl]-2-methyl-2,3,4,5-tetrahydropyrido[2,3-f][1,4]oxazepine] | 7.33 | 6.66 | – | – |
| CN1Cc2nccc(-c3cn(C)nc3-c3ccc(Cl)cc3)c2C1=O [Example 3, 4-[3-(4-chlorophenyl)-1-methyl-1H-pyrazol-4-yl]-6-methyl-6,7-dihydro-5H-pyrrolo[3,4-b]pyridin-5-one] | 7.11 | 6.46 | – | – |
| CC1COc2c(-c3cn(C)nc3-c3ccc(F)cc3)ccnc2CN1 (stereo not shown) [Example 9, 9-[3-(4-fluorophenyl)-1-methyl-1H-pyrazol-4-yl]-3-methyl-2,3,4,5-tetrahydropyrido[2,3-f][1,4]oxazepine] | 6.70 | 6.08 | – | – |
| CCS(=O)(=O)N1Cc2nccc(-c3cn(C)nc3-c3ccc(F)cc3)c2C1 [Example 11, 6-(ethylsulfonyl)-4-[3-(4-fluorophenyl)-1-methyl-1H-pyrazol-4-yl]-6,7-dihydro-5H-pyrrolo[3,4-b]pyridine] | 6.99 | 6.18 | – | – |
| Cn1cc(-c2ccnc3c2CN(S(=O)(=O)C2CC2)C3)c(-c2ccc(F)cc2)n1 [Example 12, 6-(cyclopropylsulfonyl)-4-[3-(4-fluorophenyl)-1-methyl-1H-pyrazol-4-yl]-6,7-dihydro-5H-pyrrolo[3,4-b]pyridine] | 6.69 | 6.05 | – | – |
| CCC(=O)N1Cc2nccc(-c3cn(C)nc3-c3ccc(F)cc3)c2C1 [Example 13, 4-[3-(4-fluorophenyl)-1-methyl-1H-pyrazol-4-yl]-6-propionyl-6,7-dihydro-5H-pyrrolo[3,4-b]pyridine] | 7.79 | 6.91 | – | – |
| CC(=O)N1Cc2nccc(-c3cn(C)nc3-c3ccc(F)cc3)c2C1 [Example 14, 6-acetyl-4-[3-(4-fluorophenyl)-1-methyl-1H-pyrazol-4-yl]-6,7-dihydro-5H-pyrrolo[3,4-b]pyridine] | 7.40 | 6.82 | – | – |
| Cn1cc(-c2ccnc3c2CN(C(=O)CC2CC2)C3)c(-c2ccc(F)cc2)n1 [Example 15, 6-(cyclopropylacetyl)-4-[3-(4-fluorophenyl)-1-methyl-1H-pyrazol-4-yl]-6,7-dihydro-5H-pyrrolo[3,4-b]pyridine] | 7.90 | 7.12 | – | – |
| Cn1cc(-c2ccnc3c2CN(C(=O)C2CCOC2)C3)c(-c2ccc(F)cc2)n1 (stereo not shown) [Example 16, 4-[3-(4-fluorophenyl)-1-methyl-1H-pyrazol-4-yl]-6-(tetrahydrofuran-3-ylcarbonyl)-6,7-dihydro-5H-pyrrolo[3,4-b]pyridine] | 7.42 | 6.66 | – | – |
| COCC(=O)N1Cc2nccc(-c3cn(C)nc3-c3ccc(F)cc3)c2C1 [Example 17, 4-[3-(4-fluorophenyl)-1-methyl-1H-pyrazol-4-yl]-6-(methoxyacetyl)-6,7-dihydro-5H-pyrrolo[3,4-b]pyridine] | 7.32 | 6.68 | – | – |
| CC(C)C(=O)N1Cc2nccc(-c3cn(C)nc3-c3ccc(F)cc3)c2C1 [Example 18, 4-[3-(4-fluorophenyl)-1-methyl-1H-pyrazol-4-yl]-6-isobutyryl-6,7-dihydro-5H-pyrrolo[3,4-b]pyridine] | 7.40 | 6.71 | – | – |
| CN(C)C(=O)CN1Cc2nccc(-c3cn(C)nc3-c3ccc(F)cc3)c2C1=O [Example 43, 2-{4-[3-(4-fluorophenyl)-1-methyl-1H-pyrazol-4-yl]-5-oxo-5,7-dihydro-6H-pyrrolo[3,4-b]pyridin-6-yl}-N,N-dimethylacetamide] | 6.25 | – | 7.03 | 6.29 |
| COC[C@H]1CCC[C@H]1N1Cc2nccc(-c3cn(C)nc3-c3ccc(F)cc3)c2C1=O [Example 44, 4-[3-(4-fluorophenyl)-1-methyl-1H-pyrazol-4-yl]-6-[(1R,2S)-2-(methoxymethyl)cyclopentyl]-6,7-dihydro-5H-pyrrolo[3,4-b]pyridin-5-one] | 6.36 | – | 7.15 | 6.47 |
| Cn1cc(-c2ccnc3c2C(=O)N([C@H]2[C@@H]4COC[C@@H]42)C3)c(-c2ccc(F)cc2)n1 [Example 45, 4-[3-(4-fluorophenyl)-1-methyl-1H-pyrazol-4-yl]-6-[(1R,5S,6r)-3-oxabicyclo[3.1.0]hex-6-yl]-6,7-dihydro-5H-pyrrolo[3,4-b]pyridin-5-one] | 6.78 | – | 7.71 | 7.06 |
| Cn1cc(-c2ccnc3c2C(=O)N([C@H]2CCOC2=O)C3)c(-c2ccc(F)cc2)n1 [Example 46, 4-[3-(4-fluorophenyl)-1-methyl-1H-pyrazol-4-yl]-6-[(3S)-2-oxotetrahydrofuran-3-yl]-6,7-dihydro-5H-pyrrolo[3,4-b]pyridin-5-one] | 5.84 | – | 7.16 | 6.42 |
| CCC[C@@H](C)N1Cc2nccc(-c3cn(C)nc3-c3ccc(F)cc3)c2C1=O [Example 47, 4-[3-(4-fluorophenyl)-1-methyl-1H-pyrazol-4-yl]-6-[(1R)-1-methylbutyl]-6,7-dihydro-5H-pyrrolo[3,4-b]pyridin-5-one] | 7.05 | – | < 6.80 | < 6.37 |
| Cn1cc(-c2ccnc3c2C(=O)N(C24CC(C2)C4)C3)c(-c2ccc(F)cc2)n1 [Example 48, 6-bicyclo[1.1.1]pent-1-yl-4-[3-(4-fluorophenyl)-1-methyl-1H-pyrazol-4-yl]-6,7-dihydro-5H-pyrrolo[3,4-b]pyridin-5-one] | 6.89 | – | 7.74 | 7.09 |
| CC(C)OC(=O)CN1Cc2nccc(-c3cn(C)nc3-c3ccc(F)cc3)c2C1=O [Example 49, isopropyl {4-[3-(4-fluorophenyl)-1-methyl-1H-pyrazol-4-yl]-5-oxo-5,7-dihydro-6H-pyrrolo[3,4-b]pyridin-6-yl}acetate] | 6.30 | – | 6.97 | 6.30 |
| Cn1cc(-c2ccnc3c2C(=O)N(Cc2cccnc2)C3)c(-c2ccc(F)cc2)n1 [Example 50, 4-[3-(4-fluorophenyl)-1-methyl-1H-pyrazol-4-yl]-6-(pyridin-3-ylmethyl)-6,7-dihydro-5H-pyrrolo[3,4-b]pyridin-5-one] | 7.08 | – | 7.67 | 6.84 |
| CCOCCCN1Cc2nccc(-c3cn(C)nc3-c3ccc(F)cc3)c2C1=O [Example 51, 6-(3-ethoxypropyl)-4-[3-(4-fluorophenyl)-1-methyl-1H-pyrazol-4-yl]-6,7-dihydro-5H-pyrrolo[3,4-b]pyridin-5-one] | 6.89 | – | 7.84 | 7.20 |
| Cc1ccc(CN2Cc3nccc(-c4cn(C)nc4-c4ccc(F)cc4)c3C2=O)cn1 [Example 52, 4-[3-(4-fluorophenyl)-1-methyl-1H-pyrazol-4-yl]-6-[(6-methylpyridin-3-yl)methyl]-6,7-dihydro-5H-pyrrolo[3,4-b]pyridin-5-one] | 7.22 | – | 7.72 | 6.90 |

From patent US8536164B2, “Fused pyridine compounds as casein kinase inhibitors” (Pfizer Inc., priority 2010, dated 2013)
